Activity calls are given as the source filed them. No cut-off for these calls is given here.
Tests used:
[1] = tested on: Rattus norvegicus; assay: Antiinflammatory activity in LPS-induced Wistar rat endotoxemia model assessed as decrease in plasma TNFalpha level at 20 mg/kg, ip measured after 1.5 hr; assay type: functional; parameters: scale not given: the % may be the effect or the level left
[2] = tested on: Mus musculus; assay: Hepatoprotective activity in ConA-induced BALB/c hepatitis mouse model assessed as decrease in serum IFNgamma level at 50 mg/kg, ip administration and measured after 8 hrs relative to control; assay type: functional, organism-based
[3] = tested on: Mus musculus; assay: Hepatoprotective activity in ConA-induced BALB/c hepatitis mouse model assessed as decrease in serum aspartate aminotransferase level at 50 mg/kg, ip administration and measured after 8 hrs relative to control; assay type: functional, organism-based
[4] = tested on: Mus musculus; assay: Hepatoprotective activity in ConA-induced BALB/c hepatitis mouse model assessed as decrease in serum alanine aminotransferase level at 50 mg/kg, ip administration and measured after 8 hrs relative to control; assay type: functional, organism-based
[5] = tested on: Mus musculus; assay: Hepatoprotective activity in ConA-induced BALB/c hepatitis mouse model assessed as decrease in serum IL-6 level at 10 mg/kg, ip administration and measured after 8 hrs relative to control; assay type: functional, organism-based
[6] = tested on: Rattus norvegicus; assay: Antiinflammatory activity in LPS-induced Wistar rat endotoxemia model assessed as decrease in plasma TNFalpha level at 20 mg/kg, ip measured after 2 hr; assay type: functional; parameters: scale not given: the % may be the effect or the level left
[7] = target: cGMP-specific 3',5'-cyclic phosphodiesterase (Homo sapiens, UniProt O76074); assay: Inhibition of human recombinant PDE5A using cGMP as substrate incubated for 20 mins measured by Kinase Glo reagent based microplate reader assay
[8] = Brain to serum concentration ratio in C57BL/6 mouse at 50 mg/kg, ip measured after 15 mins; assay type: ADME, organism-based
[9] = target: cGMP-inhibited 3',5'-cyclic phosphodiesterase 3A (Homo sapiens, UniProt Q14432); assay: Inhibition of human recombinant PDE3A using cAMP as substrate incubated for 20 mins measured by Kinase Glo reagent based microplate reader assay
Chain of cGMP-inhibited 3',5'-cyclic phosphodiesterase 3A (Q14432 whole entry): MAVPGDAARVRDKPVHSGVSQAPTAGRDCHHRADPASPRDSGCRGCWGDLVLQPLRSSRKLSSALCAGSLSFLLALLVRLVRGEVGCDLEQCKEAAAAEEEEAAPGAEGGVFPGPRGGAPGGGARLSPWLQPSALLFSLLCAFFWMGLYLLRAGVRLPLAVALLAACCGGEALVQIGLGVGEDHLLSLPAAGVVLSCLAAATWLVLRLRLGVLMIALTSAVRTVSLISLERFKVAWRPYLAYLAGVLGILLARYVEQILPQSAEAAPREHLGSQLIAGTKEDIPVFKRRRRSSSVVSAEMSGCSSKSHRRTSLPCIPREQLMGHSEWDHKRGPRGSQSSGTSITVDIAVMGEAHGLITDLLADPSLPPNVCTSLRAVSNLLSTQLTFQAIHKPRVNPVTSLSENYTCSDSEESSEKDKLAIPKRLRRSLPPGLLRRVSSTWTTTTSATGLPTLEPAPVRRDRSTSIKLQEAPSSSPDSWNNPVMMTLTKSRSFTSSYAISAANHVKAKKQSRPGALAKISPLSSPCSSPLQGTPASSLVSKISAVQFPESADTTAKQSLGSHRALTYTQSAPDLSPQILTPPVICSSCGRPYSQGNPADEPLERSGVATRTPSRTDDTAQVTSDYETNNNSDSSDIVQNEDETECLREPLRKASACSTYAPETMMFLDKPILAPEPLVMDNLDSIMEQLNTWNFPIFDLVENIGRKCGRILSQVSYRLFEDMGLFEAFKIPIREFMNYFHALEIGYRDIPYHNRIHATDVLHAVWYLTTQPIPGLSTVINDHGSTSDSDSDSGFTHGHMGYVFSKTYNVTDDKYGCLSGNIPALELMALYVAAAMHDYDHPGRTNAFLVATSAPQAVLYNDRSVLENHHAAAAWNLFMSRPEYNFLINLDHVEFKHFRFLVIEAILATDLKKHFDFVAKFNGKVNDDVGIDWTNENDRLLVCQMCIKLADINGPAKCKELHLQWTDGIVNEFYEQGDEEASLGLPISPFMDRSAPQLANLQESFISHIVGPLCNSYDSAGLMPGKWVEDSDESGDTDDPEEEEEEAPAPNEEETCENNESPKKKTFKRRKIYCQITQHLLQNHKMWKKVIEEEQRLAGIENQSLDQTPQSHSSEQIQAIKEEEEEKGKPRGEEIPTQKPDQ

[10] = target: High affinity 3',5'-cyclic-AMP phosphodiesterase 7A (Homo sapiens, UniProt Q13946); assay: Inhibition of human recombinant PDE7A using cAMP as substrate incubated for 20 mins measured by Kinase Glo reagent based microplate reader assay
Chain of High affinity 3',5'-cyclic-AMP phosphodiesterase 7A (Q13946 whole entry): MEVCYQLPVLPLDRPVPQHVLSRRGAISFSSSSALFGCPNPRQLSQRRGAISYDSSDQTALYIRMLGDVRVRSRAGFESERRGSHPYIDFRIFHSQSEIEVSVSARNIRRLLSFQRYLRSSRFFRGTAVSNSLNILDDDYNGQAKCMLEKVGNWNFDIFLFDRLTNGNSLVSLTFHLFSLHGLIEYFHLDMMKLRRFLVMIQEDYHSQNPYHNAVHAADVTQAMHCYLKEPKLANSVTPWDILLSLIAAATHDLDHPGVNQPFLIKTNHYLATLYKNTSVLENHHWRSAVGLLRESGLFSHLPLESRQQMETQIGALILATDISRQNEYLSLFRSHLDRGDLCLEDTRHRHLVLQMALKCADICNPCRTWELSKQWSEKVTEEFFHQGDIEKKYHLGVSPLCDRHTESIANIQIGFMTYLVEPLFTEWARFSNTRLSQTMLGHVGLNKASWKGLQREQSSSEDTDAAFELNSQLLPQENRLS

[11] = tested on: Mus musculus; assay: Hepatoprotective activity in ConA-induced BALB/c hepatitis mouse model assessed as decrease in serum IFNgamma level at 10 mg/kg, ip administration and measured after 8 hrs relative to control; assay type: functional, organism-based
[12] = Brain to serum concentration ratio in C57BL/6 mouse at 50 mg/kg, ip measured after 60 mins; assay type: ADME, organism-based
[13] = Elimination half life in Wistar rat; assay type: ADME; conditions: in vivo, read-out: beta t1/2
[14] = tested on: Rattus norvegicus; assay: Antiinflammatory activity in collagen-induced arthritis Lewis rat model assessed as decrease in paw swelling at 20 mg/kg, ip once daily administered on day 20 after collagen treatment and treated until day 40 by macroscopic observation analysis; assay type: functional, organism-based
[15] = AUC in female Lewis rat at 10 mg/kg, iv; assay type: ADME, organism-based; parameters: dose 10 mg/kg; conditions: in vivo
[16] = tested on: Rattus norvegicus; assay: Antiinflammatory activity in LPS-induced Wistar rat endotoxemia model assessed as decrease in plasma TNFalpha level at 20 mg/kg, ip measured after 1 hr; assay type: functional; parameters: scale not given: the % may be the effect or the level left
[17] = Drug uptake in C57BL/6 mouse brain at 50 mg/kg, ip measured up to 60 mins; assay type: ADME, organism-based; conditions: read-out: Drug uptake
[18] = Elimination half life in male Wistar rat at 10 mg/kg, ip; assay type: ADME, organism-based; conditions: in vivo, read-out: beta t1/2
[19] = tested on: Mus musculus; assay: Hepatoprotective activity in ConA-induced BALB/c hepatitis mouse model assessed as decrease in serum alanine aminotransferase level at 10 mg/kg, ip administration and measured after 8 hrs relative to control; assay type: functional, organism-based
[20] = Cmax in female Lewis rat at 10 mg/kg, iv; assay type: ADME, organism-based; parameters: route intravenous, dose 10 mg/kg; conditions: in vivo
[21] = Brain to serum concentration ratio in C57BL/6 mouse at 50 mg/kg, ip measured after 5 mins; assay type: ADME, organism-based
[22] = Tmax in male Wistar rat at 10 mg/kg, ip; assay type: ADME, organism-based; conditions: in vivo
[23] = Apparent volume of distribution during terminal phase in female Lewis rat at 10 mg/kg, iv; assay type: ADME, organism-based; conditions: in vivo
[24] = target: cGMP-dependent 3',5'-cyclic phosphodiesterase (Homo sapiens, UniProt O00408); assay: Inhibition of human recombinant PDE2A using cGMP as substrate incubated for 20 mins measured by Kinase Glo reagent based microplate reader assay
Chain of cGMP-dependent 3',5'-cyclic phosphodiesterase (O00408 whole entry): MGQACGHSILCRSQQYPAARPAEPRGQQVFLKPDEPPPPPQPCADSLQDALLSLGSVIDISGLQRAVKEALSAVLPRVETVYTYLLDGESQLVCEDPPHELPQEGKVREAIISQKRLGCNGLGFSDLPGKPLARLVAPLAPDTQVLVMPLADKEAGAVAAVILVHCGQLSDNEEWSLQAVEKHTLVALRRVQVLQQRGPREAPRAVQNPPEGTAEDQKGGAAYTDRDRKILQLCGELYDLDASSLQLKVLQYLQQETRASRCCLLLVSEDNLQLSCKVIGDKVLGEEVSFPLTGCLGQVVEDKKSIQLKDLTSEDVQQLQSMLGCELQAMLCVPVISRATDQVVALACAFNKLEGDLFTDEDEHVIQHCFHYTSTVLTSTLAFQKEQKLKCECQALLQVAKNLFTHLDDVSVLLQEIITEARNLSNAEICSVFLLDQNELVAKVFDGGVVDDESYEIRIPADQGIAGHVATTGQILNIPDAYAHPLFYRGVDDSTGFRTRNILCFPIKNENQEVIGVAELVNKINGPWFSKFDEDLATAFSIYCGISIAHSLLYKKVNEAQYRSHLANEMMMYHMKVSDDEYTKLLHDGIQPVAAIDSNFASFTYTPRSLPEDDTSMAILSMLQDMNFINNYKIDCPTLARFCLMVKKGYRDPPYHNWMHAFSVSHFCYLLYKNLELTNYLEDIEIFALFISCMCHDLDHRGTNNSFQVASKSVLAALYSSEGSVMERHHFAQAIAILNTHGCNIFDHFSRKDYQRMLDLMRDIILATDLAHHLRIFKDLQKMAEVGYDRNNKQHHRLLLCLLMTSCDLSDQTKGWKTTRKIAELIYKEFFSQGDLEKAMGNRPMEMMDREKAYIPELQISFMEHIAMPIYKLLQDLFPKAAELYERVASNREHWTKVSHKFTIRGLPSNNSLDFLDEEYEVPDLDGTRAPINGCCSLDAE

[25] = target: 3',5'-cyclic-AMP phosphodiesterase 4B (Homo sapiens, UniProt Q07343); assay: Inhibition of human recombinant PDE4B using cAMP as substrate incubated for 20 mins measured by Kinase Glo reagent based microplate reader assay
Chain of 3',5'-cyclic-AMP phosphodiesterase 4B (Q07343 whole entry, the tested form may be a part): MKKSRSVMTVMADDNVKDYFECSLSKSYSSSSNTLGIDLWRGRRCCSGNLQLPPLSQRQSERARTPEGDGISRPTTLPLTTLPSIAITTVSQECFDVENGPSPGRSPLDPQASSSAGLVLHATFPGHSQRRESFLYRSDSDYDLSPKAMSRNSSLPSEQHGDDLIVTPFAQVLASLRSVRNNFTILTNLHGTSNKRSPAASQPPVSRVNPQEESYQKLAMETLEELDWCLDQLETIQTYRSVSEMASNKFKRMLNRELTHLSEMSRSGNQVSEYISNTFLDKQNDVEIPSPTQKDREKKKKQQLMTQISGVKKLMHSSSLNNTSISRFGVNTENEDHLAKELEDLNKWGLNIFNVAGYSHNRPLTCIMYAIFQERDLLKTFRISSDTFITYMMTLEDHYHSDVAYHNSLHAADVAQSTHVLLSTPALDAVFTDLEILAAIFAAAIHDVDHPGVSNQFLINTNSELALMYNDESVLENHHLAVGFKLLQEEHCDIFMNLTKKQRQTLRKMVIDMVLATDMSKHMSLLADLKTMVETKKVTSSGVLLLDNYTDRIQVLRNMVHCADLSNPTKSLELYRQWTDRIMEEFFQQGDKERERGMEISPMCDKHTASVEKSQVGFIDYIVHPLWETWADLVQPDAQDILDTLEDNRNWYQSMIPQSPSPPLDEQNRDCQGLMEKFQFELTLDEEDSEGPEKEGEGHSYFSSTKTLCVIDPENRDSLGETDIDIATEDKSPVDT

[26] = tested on: Mus musculus; assay: Immunosuppressive activity in MOG (35 to 55 residues) toxin-induced experimental autoimmune encephalomyelitis C57BL/6 mouse model assessed as reduction in white matter vacuolation in cerebellum at 50 mg/kg, ip relative to untreated control; assay type: functional, organism-based
[27] = Clearance in male Wistar rat at 10 mg/kg, ip; assay type: ADME, organism-based; conditions: in vivo
[28] = target: 3',5'-cyclic-AMP phosphodiesterase 4D (Homo sapiens, UniProt Q08499); assay: Inhibition of human recombinant PDE4D using cAMP as substrate incubated for 20 mins measured by Kinase Glo reagent based microplate reader assay
Chain of 3',5'-cyclic-AMP phosphodiesterase 4D (Q08499 whole entry, the tested form may be a part): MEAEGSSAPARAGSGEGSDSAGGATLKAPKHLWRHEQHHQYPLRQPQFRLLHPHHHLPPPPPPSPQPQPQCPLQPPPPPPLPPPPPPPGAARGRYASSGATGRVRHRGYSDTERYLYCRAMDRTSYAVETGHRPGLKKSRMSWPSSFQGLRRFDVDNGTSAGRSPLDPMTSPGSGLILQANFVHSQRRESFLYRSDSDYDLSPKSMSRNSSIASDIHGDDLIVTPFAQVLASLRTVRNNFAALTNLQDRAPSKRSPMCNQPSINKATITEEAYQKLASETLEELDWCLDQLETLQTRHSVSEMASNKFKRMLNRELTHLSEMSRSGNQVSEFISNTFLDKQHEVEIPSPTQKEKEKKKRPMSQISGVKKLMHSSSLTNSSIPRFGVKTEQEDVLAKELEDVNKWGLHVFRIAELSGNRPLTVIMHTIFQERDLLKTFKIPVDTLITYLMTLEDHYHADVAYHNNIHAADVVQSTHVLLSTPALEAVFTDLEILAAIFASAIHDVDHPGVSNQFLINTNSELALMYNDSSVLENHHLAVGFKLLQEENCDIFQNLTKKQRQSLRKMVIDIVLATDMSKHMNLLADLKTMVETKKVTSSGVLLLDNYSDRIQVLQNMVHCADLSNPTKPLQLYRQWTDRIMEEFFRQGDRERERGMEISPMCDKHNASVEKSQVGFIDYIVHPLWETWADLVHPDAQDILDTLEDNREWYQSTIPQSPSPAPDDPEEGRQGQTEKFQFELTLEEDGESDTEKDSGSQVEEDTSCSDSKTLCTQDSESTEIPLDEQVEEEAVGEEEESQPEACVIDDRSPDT

[29] = tested on: Mus musculus; assay: Immunosuppressive activity in MOG (35 to 55 residues) toxin-induced experimental autoimmune encephalomyelitis C57BL/6 mouse model assessed reduction in disease onset at 50 mg/kg, ip; assay type: functional, organism-based
[30] = AUC in male Wistar rat at 10 mg/kg, ip; assay type: ADME, organism-based; parameters: dose 10 mg/kg; conditions: in vivo
[31] = Apparent volume of distribution during terminal phase in male Wistar rat at 10 mg/kg, ip; assay type: ADME, organism-based; conditions: in vivo, read-out: Vz/F
[32] = tested on: Mus musculus; assay: Hepatoprotective activity in ConA-induced BALB/c hepatitis mouse model assessed as decrease in serum aspartate aminotransferase level at 10 mg/kg, ip administration and measured after 8 hrs relative to control; assay type: functional, organism-based
[33] = tested on: Mus musculus; assay: Immunosuppressive activity in MOG (35 to 55 residues) toxin-induced experimental autoimmune encephalomyelitis C57BL/6 mouse model assessed decrease in macrophages infiltration into spinal cored at 50 mg/kg, ip relative to untreated control; assay type: functional, organism-based
[34] = tested on: Mus musculus; assay: Immunosuppressive activity in MOG (35 to 55 residues) toxin-induced experimental autoimmune encephalomyelitis female C57BL/6 mouse model assessed as reduction in clinical scores at 50 mg/kg, ip administered […] once daily starting from day 1 post immunization and measured 15 days; assay type: functional, organism-based; conditions: time 15.0 day
[35] = tested on: Mus musculus; assay: Hepatoprotective activity in ConA-induced BALB/c hepatitis mouse model assessed as decrease in serum IL-6 level at 50 mg/kg, ip administration and measured after 8 hrs relative to control; assay type: functional, organism-based
[36] = Clearance in female Lewis rat at 10 mg/kg, iv; assay type: ADME, organism-based; conditions: in vivo
[37] = Selectivity index, ratio of IC50 for inhibition of human recombinant PDE3A to IC50 for inhibition of human recombinant PDE4B
[38] = target: cAMP and cAMP-inhibited cGMP 3',5'-cyclic phosphodiesterase 10A (Homo sapiens, UniProt Q9Y233); assay: Inhibition of human recombinant PDE10A using cAMP as substrate incubated for 20 mins measured by Kinase Glo reagent based microplate reader assay
[39] = Tmax in female Lewis rat at 10 mg/kg, iv; assay type: ADME, organism-based; conditions: in vivo
[40] = Cmax in male Wistar rat at 10 mg/kg, ip; assay type: ADME, organism-based; parameters: route intraperitoneal, dose 10 mg/kg; conditions: in vivo
[41] = Elimination half life in female Lewis rat at 10 mg/kg, iv; assay type: ADME, organism-based; conditions: in vivo, read-out: beta t1/2
[42] = tested on: Mus musculus; assay: Immunosuppressive activity in MOG (35 to 55 residues) toxin-induced experimental autoimmune encephalomyelitis C57BL/6 mouse model assessed decrease in polymorphonuclear leukocytes infiltration into spinal cored at 50 mg/kg, ip relative to untreated control; assay type: functional, organism-based
[43] = target: Dual specificity calcium/calmodulin-dependent 3',5'-cyclic nucleotide phosphodiesterase 1B (Homo sapiens, UniProt Q01064); assay: Inhibition of human recombinant PDE1B using cAMP as substrate incubated for 20 mins measured by Kinase Glo reagent based microplate reader assay
Chain of Dual specificity calcium/calmodulin-dependent 3',5'-cyclic nucleotide phosphodiesterase 1B (Q01064 whole entry): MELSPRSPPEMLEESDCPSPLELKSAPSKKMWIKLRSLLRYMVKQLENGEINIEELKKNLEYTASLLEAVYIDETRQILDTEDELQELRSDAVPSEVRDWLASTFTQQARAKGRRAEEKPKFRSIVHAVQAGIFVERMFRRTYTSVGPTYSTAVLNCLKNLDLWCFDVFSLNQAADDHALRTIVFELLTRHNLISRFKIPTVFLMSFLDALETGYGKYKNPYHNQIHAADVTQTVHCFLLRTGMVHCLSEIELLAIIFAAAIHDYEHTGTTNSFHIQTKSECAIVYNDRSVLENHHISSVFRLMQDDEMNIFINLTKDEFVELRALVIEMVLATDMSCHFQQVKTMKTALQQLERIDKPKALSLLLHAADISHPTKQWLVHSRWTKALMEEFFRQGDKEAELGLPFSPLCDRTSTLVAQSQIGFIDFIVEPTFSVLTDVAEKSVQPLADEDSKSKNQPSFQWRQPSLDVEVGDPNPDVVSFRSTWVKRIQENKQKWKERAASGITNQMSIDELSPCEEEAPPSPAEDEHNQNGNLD

[44] = Selectivity index, ratio of IC50 for inhibition of human recombinant PDE4D to IC50 for inhibition of human recombinant PDE4B

## OCCCNc1ccnc2c1nc(-c1ccco1)n2C1CCCC1
[1]
  Activity: 51%
[2]
  Activity: Active
[3]
  Activity: Active
[4]
  Activity: Active
[5]
  Activity: Active
[6]
  Activity: 44%
[7]
  IC50: 2.71 µM
[8]
  Kp at […]: 5.87
[9]
  IC50: 47.3 µM
[10]
  IC50: 88 µM
[11]
  Activity: Active
[12]
  Kp at 1 h: 4.34
[13]
  half-life: 30 min
[14]
  Activity: Active
[15]
  AUC: 2530 ng·h/mL
[16]
  Activity: 49%
[17]
  concentration at 1 h: ≥ 830 ng/mL
[18]
  half-life: 20.1 min
[19]
  Activity: Active
[20]
  Cmax: 10600 ng/mL
[21]
  Kp at 5 min: 2.96
[22]
  Tmax: 15 min
[23]
  Vz/F: 1.85 L/kg
[24]
  IC50: 40.7 µM
[25]
  IC50: 2.53 µM
[26]
  Activity: Active
[27]
  CL/F: 140 mL/min/kg
[28]
  IC50: 35.6 µM
[29]
  Activity: Active
[30]
  AUC: 1230 ng·h/mL
[31]
  Vd/F: 3.92 L/kg
[32]
  Activity: Active
[33]
  Activity: Active
[34]
  Activity: Active
[35]
  Activity: Active
[36]
  clearance: 70 mL/min/kg
[37]
  Ratio IC50: > 10
[38]
  IC50: 5.75 µM
[39]
  Tmax: 0 h
[40]
  Cmax: 1940 ng/mL
[41]
  half-life: 19.5 min
[42]
  Activity: Active
[43]
  IC50: 8.45 µM
[44]
  Ratio IC50: > 10

Reference: ChEMBL document CHEMBL4732047, “New imidazopyridines with phosphodiesterase 4 and 7 inhibitory activity and their efficacy in animal models of inflammatory and autoimmune diseases” (Eur J Med Chem, 2021)
